Data from patent publication US10954221B2, “GLP-1R agonists and uses thereof” (QILU REGOR THERAPEUTICS INC., priority 2019, dated 2021).

Key:
[1] = target: T1, GLP1R (Homo sapiens, UniProt P43220); test: GLP1R cAMP assay (HTRF), HEK293/GLP-1R/CRE/Luc, Clone 4
Target sequence in this assay (P43220 24-463): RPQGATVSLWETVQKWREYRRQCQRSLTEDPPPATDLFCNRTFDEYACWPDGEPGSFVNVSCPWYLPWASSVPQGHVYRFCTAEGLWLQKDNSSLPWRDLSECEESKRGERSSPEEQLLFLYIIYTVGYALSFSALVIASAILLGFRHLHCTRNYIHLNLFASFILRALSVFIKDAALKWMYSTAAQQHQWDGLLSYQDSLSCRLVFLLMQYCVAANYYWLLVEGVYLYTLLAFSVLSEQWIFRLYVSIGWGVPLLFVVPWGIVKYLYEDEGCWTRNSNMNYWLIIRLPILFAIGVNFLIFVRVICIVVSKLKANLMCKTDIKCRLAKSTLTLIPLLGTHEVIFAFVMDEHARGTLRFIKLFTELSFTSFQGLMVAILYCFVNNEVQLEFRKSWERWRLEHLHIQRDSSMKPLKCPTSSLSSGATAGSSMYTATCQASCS
Protocol: GLP-1R-mediated agonist activity was determined with a cell-based functional assay utilizing an HTRF (Homogeneous Time-Resolved Fluorescence) cAMP detection kit (cAMP Dynamic 2 Assay Kit; CisBio cat #62AM4PEC) that measures cAMP levels in the cell. The method is a competitive immunoassay between native cAMP produced by the cells and exogenous cAMP labeled with the dye d2. The tracer binding is visualized by a mAb anti-cAMP labeled with Cryptate. The specific signal (i.e., energy transfer) is inversely proportional to the concentration of cAMP in either standard or experimental sample.
The human GLP-1R coding sequence (NCBI Reference Sequence NM_002062) was subcloned into pcDNA3.1+/Hygro vector (Invitrogen) and transfected into HEK293/CRE/Luc parental cell line. A cell line stably expressing the receptor was isolated.
Varying concentrations of each compound to be tested (in DMSO) were diluted in DMSO to obtain 200× compound working solution first and then 50 nl compounds were added to a white 384-well assay plate (Greiner 784075) with ECHO. The final DMSO concentration was 0.5%.
Cells were removed from cryopreservation, re-suspended in 5 mL of Dulbecco's Phosphate Buffered Saline (DPBS-Sigma Cat #D8537) and centrifuged at 900×g for 5 min at 22° C. The cell pellet was then re-suspended in 1 mL of assay buffer [DPBS with 500 μM IBMX (Sigma #15879) and 0.1% BSA (Sigma #A1933). IBMX and BSA were freshly added on the day of assay]. A 10 μL sample of the cell suspension was counted on an Invitrogen Countess II to determine cell viability and cell count per mL. The remaining cell suspension was then adjusted with assay buffer to deliver 1000 viable cells per well using a Matrix Combi Multidrop reagent dispenser. 10 μL cell suspensions were added to each well
of the assay plate which already contains compound. The plate was sealed and incubated at 37° C. with 5% CO2 for 30 minutes.
Following the 30 minute incubation, 5 μL of labeled d2 cAMP and 5 μL of anti-cAMP antibody (both diluted 1:20 in cell lysis buffer; as described in the manufacturer's assay protocol) were added to each well of the assay plate. The plates were then incubated at room temperature and after 60 minutes, changes in the HTRF signal were read with an Envision multi-label plate reader using excitation of 330 nm and emissions of 615 and 665 nm. Raw data were converted to nM cAMP by interpolation from a cAMP standard curve (as described in the manufacturer's assay protocol) and the percent effect was determined relative to a saturating concentration of the full agonist GLP-17-37 (10 nM) included on each plate. EC50 determinations were made from agonist dose-response curves analyzed with a curve fitting program using a 4-parameter logistic dose response equation.

[2] = target: T1, GLP1R; test: β-Arrestin-mediated GLP1R internalization assay (PathHunter U2OS cells); assay type: cell-based; parameters: host or cells: PathHunter engineered U2OS cells; settings: averaged Bmax where applicable, Percentage of Control GLP-1 (7-37), top 10 μM, 180 min
From the text: A similar assay can also be used to assess the extent of signal attenuation due to GLP-1R internalization (the Internalization Assay). In this assay, activated GLP1R Internalization cells were engineered to co-express an untagged GLP1R, Enzyme Acceptor (EA) tagged β-Arrestin, and a ProLink™ (PK) tag localized to the endosomes. Activation of the GLP1R induces β-Arrestin recruitment, which leads to internalization of the Receptor/Arrestin-EA complex in PK-tagged endosomes. This forces complementation of the two β-galactosidase enzyme fragments (EA and PK) to form a functional enzyme that hydrolyzes substrate to generate a chemiluminescent signal.
Frozen cells were quickly thawed and 10 mL of cell plating medium (provided by the kit) was added to thawed cells. Cells were stored in a 37° C. incubator and kept for approximately 48 hours until ready for the assay.
Reference and test compounds were dissolved in 100% DMSO. […] 5 μL of this solution was added to 20 μL cell medium in assay plate for a final top concentration of 10 μM. Plates were incubated at 37° C. for 180 min.
Following 180 min incubation, detection reagents were made up by combining 1 part Galacton Star Substrate with 5 parts Emerald II™ Solution, and 19 parts of PathHunter Cell Assay Buffer, respectively. 12.5 μL detection reagent was added to each well. The plates were then incubated at room temperature for 60 min. Plates were then read on Envision for 0.1 sec/well.
EC50 determinations were made from agonist dose-response curves analyzed with a curve fitting program using a 4-parameter logistic dose response equation.
Target sequence in this assay (P43220 24-463): as above
Target sequence in this assay (P32121 whole entry partner): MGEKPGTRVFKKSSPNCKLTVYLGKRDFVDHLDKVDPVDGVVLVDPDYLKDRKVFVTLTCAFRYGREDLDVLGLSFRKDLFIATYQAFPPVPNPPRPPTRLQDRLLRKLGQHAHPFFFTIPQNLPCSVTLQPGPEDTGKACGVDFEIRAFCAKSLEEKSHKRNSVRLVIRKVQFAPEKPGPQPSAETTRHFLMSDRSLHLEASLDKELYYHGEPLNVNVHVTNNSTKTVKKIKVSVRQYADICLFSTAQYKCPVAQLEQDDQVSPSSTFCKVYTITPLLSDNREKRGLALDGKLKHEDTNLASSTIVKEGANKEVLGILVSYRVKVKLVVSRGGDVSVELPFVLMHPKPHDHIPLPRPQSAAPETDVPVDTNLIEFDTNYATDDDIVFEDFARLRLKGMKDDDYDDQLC

[3] = target: T1, GLP1R; parameters: Emax: dose or concentration left out as unconfirmed; settings: for β-arrestin recruitment Bmax (%): partial maximum relative effect at the highest concentration tested (top 10 μM), relative to Bmax of GLP-1 (7-37), PathHunter CHO-K1 GLP1R β-Arrestin cells; for Emax: CHO-K1, […], read-out: β-arrestin recruitment Bmax (%)
Target sequence in this assay (P43220 24-463): as the sequence (P43220 24-463) above
Target sequence in this assay (P32121 whole entry partner): as the sequence (P32121 whole entry partner) above

EC50 [1] [nM] | β-arrestin internalization Bmax (POC) [2] [POC] | β-arrestin recruitment Bmax (%) [3] [%] | Emax [3] [%] | Compound
< 15 | 17.0 | 32.1 | – | O=C(O)c1ccc2nc(Cc3ccc(-c4cccc(OCc5ccc(Cl)cc5F)n4)c(F)c3)n(C[C@@H]3CCO3)c2c1 [Compound 74, (S)-2-(4-(6-((4-chloro-2-fluorobenzyl)oxy)pyridin-2-yl)-3-fluorobenzyl)-1-(oxetan-2-ylmethyl)-1H-benzo[d]imidazole-6-carboxylic acid]
< 15 | – | – | 32 | N#Cc1ccc(COc2cccc(-c3ccc(Cc4nc5ccc(C(=O)O)nc5n4C[C@@H]4CCO4)cc3F)n2)c(F)c1 [Compound 293, (S)-2-(4-(6-((4-cyano-2-fluorobenzyl)oxy)pyridin-2-yl)-3-fluorobenzyl)-3-(oxetan-2-ylmethyl)-3H-imidazo[4,5-b]pyridine-5-carboxylic acid]
< 15 | – | – | 25.5 | N#Cc1ccc(COc2nc(-c3ccc(Cc4nc5ccc(C(=O)O)nc5n4C[C@@H]4CCO4)c(F)c3)ccc2F)c(F)c1 [Compound 284, (S)-2-(4-(6-(4-cyano-2-fluorobenzyloxy)-5-fluoropyridin-2-yl)-2-fluorobenzyl)-3-(oxetan-2-ylmethyl)-3H-imidazo[4,5-b]pyridine-5-carboxylic acid]
< 15 | 21.2 | – | 31.6 | O=C(O)c1ccc2nc(Cc3ccc(-c4ccnc(OCc5ccc(Cl)cc5F)n4)c(F)c3)n(C[C@@H]3CCO3)c2c1 [Compound 80, (S)-2-(4-(2-((4-chloro-2-fluorobenzyl)oxy)pyrimidin-4-yl)-3-fluorobenzyl)-1-(oxetan-2-ylmethyl)-1H-benzo[d]imidazole-6-carboxylic acid]
< 15 | – | – | 31.8 | O=C(O)c1ccc2nc(Cc3ccc(-c4ccc(F)c(OCc5ccc(Cl)cc5F)n4)c(F)c3)n(C[C@@H]3CCO3)c2n1 [Compound 305, (S)-2-(4-(6-((4-chloro-2-fluorobenzyl)oxy)-5-fluoropyridin-2-yl)-3-fluorobenzyl)-3-(oxetan-2-ylmethyl)-3H-imidazo[4,5-b]pyridine-5-carboxylic acid]
< 15 | – | – | 24 | O=C(O)c1ccc2nc(Cc3ccc(-c4ncc(F)c(OCc5ccc(F)cc5F)n4)cc3F)n(C[C@@H]3CCO3)c2n1 [Compound 285, (S)-2-(4-(4-((2,4-difluorobenzyl)oxy)-5-fluoropyrimidin-2-yl)-2-fluorobenzyl)-3-(oxetan-2-ylmethyl)-3H-imidazo[4,5-b]pyridine-5-carboxylic acid]
< 15 | 30.6 | – | 37.2 | O=C(O)c1ccc2nc(Cc3ccc(-c4ncc(F)c(OCc5ccc(Cl)cc5F)n4)c(F)c3)n(C[C@@H]3CCO3)c2c1 [Compound 81, (S)-2-(4-(4-(4-chloro-2-fluorobenzyloxy)-5-fluoropyrimidin-2-yl)-3-fluorobenzyl)-1-(oxetan-2-ylmethyl)-1H-benzo[d]imidazole-6-carboxylic acid]
< 15 | 21.6 | – | 29.5 ± 3.21 | O=C(O)c1ccc2nc(Cc3ccc(-c4ncc(F)c(OCc5ccc(Cl)cc5F)n4)cc3F)n(C[C@@H]3CCO3)c2c1 [Compound 90, (S)-2-(4-(4-((4-chloro-2-fluorobenzyl)oxy)-5-fluoropyrimidin-2-yl)-2-fluorobenzyl)-1-(oxetan-2-ylmethyl)-1H-benzo[d]imidazole-6-carboxylic acid]
< 15 | 7.49 | – | 22.7 | O=C(O)c1ccc2nc(Cc3ccc(-c4ccc(F)c(OCc5ccc(Cl)cc5F)c4)c(F)c3)n(C[C@@H]3CCO3)c2c1 [Compound 78, (S)-2-((3′-((4-chloro-2-fluorobenzyl)oxy)-2,4′-difluoro-[1,1′-biphenyl]-4-yl)methyl)-1-(oxetan-2-ylmethyl)-1H-benzo[d]imidazole-6-carboxylic acid]
< 15 | – | – | 26.6 | CC1(c2ccc(C#N)cc2F)Oc2cccc(C3=CCN(Cc4nc5ccc(C(=O)O)cc5n4C[C@@H]4CCO4)CC3)c2O1 (stereo partly drawn) [Compound 334, 2-((4-(2-(4-cyano-2-fluorophenyl)-2-methylbenzo[d][1,3]dioxol-4-yl)-3,6-dihydropyridin-1(2H)-yl)methyl)-1-(((S)-oxetan-2-yl)methyl)-1H-benzo[d]imidazole-6-carboxylic acid]
< 15 | – | – | 28.3 | O=C(O)c1ccc2nc(Cc3ccc(-c4cccc(OCc5ccc(Cl)cc5F)n4)c(F)c3)n(C[C@@H]3CCO3)c2n1 [Compound 102, (S)-2-(4-(6-((4-chloro-2-fluorobenzyl)oxy)pyridin-2-yl)-3-fluorobenzyl)-3-(oxetan-2-ylmethyl)-3H-imidazo[4,5-b]pyridine-5-carboxylic acid]
< 15 | – | – | 31.4 | O=C(O)c1ccc2nc(Cc3cc(F)c(-c4cccc(OCc5ccc(Cl)cc5F)n4)cc3F)n(C[C@@H]3CCO3)c2c1 [Compound 257, (S)-2-(4-(6-((4-chloro-2-fluorobenzyl)oxy)pyridin-2-yl)-2,5-difluorobenzyl)-1-(oxetan-2-ylmethyl)-1H-benzo[d]imidazole-6-carboxylic acid]
< 15 | – | – | 28.5 | N#Cc1ccc(COc2cccc(-c3cc(F)c(Cc4nc5ccc(C(=O)O)cc5n4C[C@@H]4CCO4)cc3F)n2)c(F)c1 [Compound 271, (S)-2-(4-(6-((4-cyano-2-fluorobenzyl)oxy)pyridin-2-yl)-2,5-difluorobenzyl)-1-(oxetan-2-ylmethyl)-1H-benzo[d]imidazole-6-carboxylic acid]
< 15 | – | – | 17.9 | O=C(O)c1ccc2nc(CN3CC=C(c4scnc4OCc4ccc(Cl)cc4F)CC3)n(C[C@@H]3CCO3)c2c1 [Compound 331, (S)-2-((4-(4-((4-chloro-2-fluorobenzyl)oxy)thiazol-5-yl)-3,6-dihydropyridin-1(2H)-yl)methyl)-1-(oxetan-2-ylmethyl)-1H-benzo[d]imidazole-6-carboxylic acid]
< 15 | – | – | 29.6 | N#Cc1ccc(COc2nc(-c3ccc(Cc4nc5ccc(C(=O)O)nc5n4C[C@@H]4CCO4)cc3F)ccc2F)c(F)c1 [Compound 289, (S)-2-(4-(6-((4-cyano-2-fluorobenzyl)oxy)-5-fluoropyridin-2-yl)-3-fluorobenzyl)-3-(oxetan-2-ylmethyl)-3H-imidazo[4,5-b]pyridine-5-carboxylic acid]
< 15 | 26.6 | – | – | O=C(O)c1ccc2nc(CN3CC=C(c4csc(OCc5ccc(Cl)cc5F)n4)CC3)n(C[C@@H]3CCO3)c2c1 [Compound 247, (S)-2-((4-(2-((4-chloro-2-fluorobenzyl)oxy)thiazol-4-yl)-3,6-dihydropyridin-1(2H)-yl)methyl)-1-(oxetan-2-ylmethyl)-1H-benzo[d]imidazole-6-carboxylic acid]
< 15 | – | 19.4 | – | O=C(O)c1ccc2nc(Cn3ccc(-c4cccc(OCc5ccc(Cl)cc5F)n4)cc3=O)n(C[C@@H]3CCO3)c2c1 [Compound 323, (S)-2-((6-((4-chloro-2-fluorobenzyl)oxy)-2′-oxo-[2,4′-bipyridin]-1′(2′H)-yl)methyl)-1-(oxetan-2-ylmethyl)-1H-benzo[d]imidazole-6-carboxylic acid]
15 to 150 | – | – | 9.75 | N#Cc1ccc(COc2ncccc2C2=CCN(Cc3nc4ccc(C(=O)O)cc4n3C[C@@H]3CCO3)CC2)c(F)c1 [Compound 333, (S)-2-((4-(2-(4-cyano-2-fluorobenzyloxy)pyridin-3-yl)-5,6-dihydropyridin-1(2H)-yl)methyl)-1-(oxetan-2-ylmethyl)-1H-benzo[d]imidazole-6-carboxylic acid]
< 15 | – | – | – | O=C(O)c1ccc2nc(Cc3ccc(-c4nc(OCc5ccc(Cl)cc5F)c(F)cc4F)cc3F)n(C[C@@H]3CCO3)c2c1 [Compound 260, (S)-2-(4-(6-(4-chloro-2-fluorobenzyloxy)-3,5-difluoropyridin-2-yl)-2-fluorobenzyl)-1-(oxetan-2-ylmethyl)-1H-benzo[d]imidazole-6-carboxylic acid]
< 15 | – | – | – | O=C(O)c1ccc2nc(Cc3ccc(-c4cccc(OCc5ccc(F)cc5F)n4)cc3F)n(C[C@@H]3CCO3)c2n1 [Compound 286, (S)-2-(4-(6-((2,4-difluorobenzyl)oxy)pyridin-2-yl)-2-fluorobenzyl)-3-(oxetan-2-ylmethyl)-3H-imidazo[4,5-b]pyridine-5-carboxylic acid]

Compound | EC50 [1] [nM] | β-arrestin internalization Bmax (POC) [2] [POC] | β-arrestin recruitment Bmax (%) [3] [%] | Emax [3] [%]
O=C(O)c1ccc2nc(CN3CC=C(c4csnc4OCc4ccc(Cl)cc4F)CC3)n(C[C@@H]3CCO3)c2c1 [Compound 332, (S)-2-((4-(3-(4-chloro-2-fluorobenzyloxy)isothiazol-4-yl)-5,6-dihydropyridin-(2H)-yl)methyl)-1-(oxetan-2-ylmethyl)-1H-benzo[d]imidazole-6-carboxylic acid] | < 15 | – | – | 14.5
